Experimental data: patent US20180170903A1, “PYRIDIN-3-YL ACETIC ACID DERIVATIVES AS INHIBITORS OF HUMAN IMMUNODEFICIENCY VIRUS REPLICATION” (ViiV HEALTHCARE UK (NO.5) LIMITED, priority 2015, published 2018)
Where two headings read alike, the source gives them in different places.

Test system: NL-RLuc virus (recombinant HIV NL4-3 proviral clone with Renilla Luciferase) in MT-2 cells
Experiment: Inhibition of HIV Replication (NL-RLuc luciferase reporter virus, MT-2 cells)
Type: cell-based
Details: MT2, 120 h
Excerpt: Inhibition of HIV Replication:
A recombinant NL-RLuc proviral clone was constructed in which a section of the nef gene from NL4-3 was replaced with the Renilla Luciferase gene. This virus is fully infectious and can undergo multiple cycles of replication in cell culture. In addition, the luciferous reporter provides a simple and easy method for quantitating the extent of virus growth and consequently, the antiviral activity of test compounds. The plasmid pNLRLuc contains the proviral NL-Rluc DNA cloned into pUC 18 at the PvuII site. The NL-RLuc virus was prepared by transfection of 293T cells with the plasmid pNLRLuc. Transfections were performed using the LipofectAMINE PLUS kit from Invitrogen (Carlsbad, Calif.) according to the manufacturer and the virus generated was titered in MT-2 cells. For susceptibility analyses, the titrated virus was used to infect MT-2 cells in the presence of compound, and after 5 days of incubation, cells were processed and quantitated for virus growth by the amount of expressed luciferase. Assay media was RPMI 1640 supplemented with 10% heat inactivated fetal bovine serum (FBS), 100 units/ml penicillin G/100 units/ml streptomycin, 10 mM HEPES buffer pH 7.55 and 2 mM L-glutamine. The results from at least 2 experiments were used to calculate the EC50 values. Luciferase was quantitated using the Dual Luciferase kit from Promega (Madison, Wis.). Susceptibility of viruses to compounds was determined by incubation in the presence of serial dilutions of the compound. The 50% effective concentration (EC50) was calculated by using the exponential form of the median effect equation where (Fa)=1/[1+(ED50/drug conc.)^m](Johnson V A, Byington R T. Infectivity Assay. In Techniques in HIV Research. ed. Aldovini A, Walker B D. 71-76. New York: Stockton Press. 1990). Activity equal to A refers to a compound having an EC50≤100 nM, while B and C denote compounds having an EC50 between 100 nM and 1 uM (B) or >1 uM (C).

SMILES	EC50 (read-out: Activity) [µM]	EC50 (read-out: EC50 μM) [µM]
Cc1nc(C)c([C@H](OC(C)(C)C)C(=O)O)c(N2CCC(C)(C)CC2)c1-c1ccc(CNCc2ccc(Cl)c(Cl)c2)cc1 [Example 12, (S)-2-(tert-butoxy)-2-(5-(4-(((3,4-dichlorobenzyl)amino)methyl)phenyl)-4-(4,4-dimethylpiperidin-1-yl)-2,6-dimethylpyridin-3-yl)acetic acid]	< 0.1	
Cc1nc(C)c([C@H](OC(C)(C)C)C(=O)O)c(N2CCC(C)(C)CC2)c1-c1ccc(CSCc2ccc(F)cc2)cc1 [Example 52, (S)-2-(tert-Butoxy)-2-(4-(4,4-dimethylpiperidin-1-yl)-5-(4-(((4-fluorobenzyl)thio)methyl)phenyl)-2,6-dimethylpyridin-3-yl)acetic acid]	< 0.1	
Cc1cc(C(=O)N(Cc2ccc(F)cc2)Cc2ccc(-c3c(C)nc(C)c([C@H](OC(C)(C)C)C(=O)O)c3N3CCC(C)(C)CC3)cc2)c(C)o1 [Example 29, (S)-2-(terr-butoxy)-2-(4-(4,4-dimethylpiperidin-1-yl)-5-(4-((N-(4-fluorobenzyl)-2,5-dimethylfuran-3-carboxamido)methyl)phenyl)-2,6-dimethylpyridin-3-yl)acetic acid]	< 0.1	
Cc1nc(C)c([C@H](OC(C)(C)C)C(=O)O)c(N2CCC(C)(C)CC2)c1-c1ccc(CN(Cc2ccc(F)cc2)C(=O)C(C)C)cc1 [Example 23, (S)-2-(tert-butoxy)-2-(4-(4,4-dimethylpiperidin-1-yl)-5-(4-((N-(4-fluorobenzyl)isobutyramido)methyl)phenyl)-2,6-dimethylpyridin-3-yl)acetic acid]	< 0.1	
Cc1nc(C)c([C@H](OC(C)(C)C)C(=O)O)c(N2CCC(C)(C)CC2)c1-c1ccc(CN(Cc2ccc(F)cc2)C(=O)c2ccccc2)cc1 [Example 21, (S)-2-(tert-butoxy)-2-(4-(4,4-dimethylpiperidin-1-yl)-5-(4-((N-(4-fluorobenzyl)benamido)methyl)phenyl)-2,6-dimethylpyridin-3-yl)acetic acid]	< 0.1	
Cc1nc(C)c([C@H](OC(C)(C)C)C(=O)O)c(N2CCC(C)(C)CC2)c1-c1ccc(CNCCC(C)(C)C)cc1 [Example 6, (S)-2-(tert-butoxy)-2-(5-(4-(((3,3-dimethylbutyl)amino)methyl)phenyl)-4-(4,4-dimethylpiperidin-1-yl)-2,6-dimethylpyridin-3-yl)acetic acid]	0.1 to 1	
Cc1nc(C)c([C@H](OC(C)(C)C)C(=O)O)c(N2CCC(C)(C)CC2)c1-c1ccc(COCc2ccc(F)cc2)cc1 [Example 51, (S)-2-(tert-Butoxy)-2-(4-(4,4-dimethylpiperidin-1-yl)-5-(4-(((4-fluorobenzyl)oxy)methyl)phenyl)-2,6-dimethylpyridin-3-yl)acetic acid]	> 1	
CC(=O)N(Cc1ccc(F)cc1)Cc1ccc(-c2c(C)nc(C)c([C@H](OC(C)(C)C)C(=O)O)c2N2CCC(C)(C)CC2)cc1 [Example 24, (S)-2-(tert-butoxy)-2-(4-(4,4-dimethylpiperidin-1-yl)-5-(4-((N-(4-fluorobenzyl)acetamido)methyl)phenyl)-2,6-dimethylpyridin-3-yl)acetic acid]	< 0.1	
Cc1nc(C)c([C@H](OC(C)(C)C)C(=O)O)c(N2CCC(C)(C)CC2)c1-c1ccc(CNCC2CCCCC2)cc1 [Example 17, (S)-2-(tert-butoxy)-2-(5-(4-(((cyclohexylmethyl)amino)methyl)phenyl)-4-(4,4-dimethylpiperidin-1-yl)-2,6-dimethylpyridin-3-yl)acetic acid]	0.1 to 1	
Cc1nc(C)c([C@H](OC(C)(C)C)C(=O)O)c(N2CCC(C)(C)CC2)c1-c1ccc(CN(Cc2ccc(F)cc2)C(=O)c2ccccc2C(F)(F)F)cc1 [Example 39, (S)-2-(tert-butoxy)-2-(4-(4,4-dimethylpiperidin-1-yl)-5-(4-((N-(4-fluorobenzyl)-2-(trifluoromethyl)benzamido)methyl)phenyl)-2,6-dimethylpyridin-3-yl)acetic acid]	< 0.1	
Cc1nc(C)c([C@H](OC(C)(C)C)C(=O)O)c(N2CCC(C)(C)CC2)c1-c1ccc(CN(Cc2ccc(F)cc2)C(=O)C(C)(C)C)cc1 [Example 25, (S)-2-(tert-butoxy)-2-(4-(4,4-dimethylpiperidin-1-yl)-5-(4-((N-(4-fluorobenzyl)pivalamido)methyl)phenyl)-2,6-dimethylpyridin-3-yl)acetic acid]	< 0.1	
Cc1nc(C)c([C@H](OC(C)(C)C)C(=O)O)c(N2CCC(C)(C)CC2)c1-c1ccc(CN(Cc2ccc(F)cc2)C(=O)C2CC2)cc1 [Example 40, (S)-2-(tert-butoxy)-2-(4-(4,4-dimethylpiperidin-1-yl)-5-(4-((N-(4-fluorobenzyl)cyclopropanecarboxamido)methyl)phenyl)-2,6-dimethylpyridin-3-yl)acetic acid]	< 0.1	
CCC(=O)N(Cc1ccc(F)cc1)Cc1ccc(-c2c(C)nc(C)c([C@H](OC(C)(C)C)C(=O)O)c2N2CCC(C)(C)CC2)cc1 [Example 22, (S)-2-(tert-butoxy)-2-(4-(4,4-dimethylpiperidin-1-yl)-5-(4-((N-(4-fluorobenzyl)propionamido)methyl)phenyl)-2,6-dimethylpyridin-3-yl)acetic acid]	< 0.1	
Cc1nc(C)c([C@H](OC(C)(C)C)C(=O)O)c(N2CCC(C)(C)CC2)c1-c1ccc(CN2CCc3ccccc3C2)cc1 [Example 53, (S)-2-(tert-Butoxy)-2-(5-(4-((3,4-dihydroisoquinolin-2(1H)-yl)methyl)phenyl)-4-(4,4-dimethylpiperidin-1-yl)-2,6-dimethylpyridin-3-yl)acetic acid]	< 0.1	0.076
Cc1nc(C)c([C@H](OC(C)(C)C)C(=O)O)c(N2CCC(C)(C)CC2)c1-c1ccc(CN2CCOCC2)cc1 [Example 2, (S)-2-(tert-Butoxy)-2-(4-(4,4-dimethylpiperidin-1-yl)-2,6-dimethyl-5-(4-(morpholinomethyl)phenyl)pyridin-3-yl)acetic acid]	0.1 to 1	0.113
COc1ccc(CCNCc2ccc(-c3c(C)nc(C)c([C@H](OC(C)(C)C)C(=O)O)c3N3CCC(C)(C)CC3)cc2)cc1 [Example 8, (S)-2-(tert-butoxy)-2-(4-(4,4-dimethylpiperidin-1-yl)-5-(4-(((4-methoxyphenethyl)amino)methyl)phenyl)-2,6-dimethylpyridin-3-yl)acetic acid]	< 0.1	0.09
Cc1nc(C)c([C@H](OC(C)(C)C)C(=O)O)c(N2CCC(C)(C)CC2)c1-c1ccc(CN(C)Cc2ccc(F)cc2)cc1 [Example 7, (S)-2-(tert-butoxy)-2-(4-(4,4-dimethylpiperidin-1-yl)-5-(4-(((4-fluorobenzyl)(methyl)amino)methyl)phenyl)-2,6-dimethylpyridin-3-yl)acetic acid]	< 0.1	
Cc1cc(CNCc2ccc(-c3c(C)nc(C)c([C@H](OC(C)(C)C)C(=O)O)c3N3CCC(C)(C)CC3)cc2)ccc1F [Example 1, (S)-2-(tert-Butoxy)-2-(4-(4,4-dimethylpiperidin-1-yl)-5-(4-(((4-fluoro-3-methylbenzyl)amino)methyl)phenyl)-2,6-dimethylpyridin-3-yl)acetic acid]	< 0.1	0.013
Cc1nc(C)c([C@H](OC(C)(C)C)C(=O)O)c(N2CCC(C)(C)CC2)c1-c1ccc(CNCCc2ccc(F)cc2)cc1 [Example 11, (S)-2-(tert-butoxy)-2-(4-(4,4-dimethylpiperidin-1-yl)-5-(4-(((4-fluorophenethyl)amino)methyl)phenyl)-2,6-dimethylpyridin-3-yl)acetic acid]	< 0.1	
Cc1nc(C)c([C@H](OC(C)(C)C)C(=O)O)c(N2CCC(C)(C)CC2)c1-c1ccc(CNCc2ccc(C(=O)O)cc2)cc1 [Example 19, (S)-4-(((4-(5-(tert-butoxy(carboxy)methyl)-4-(4,4-dimethylpiperidin-1-yl)-2,6-dimethylpyridin-3-yl)benzyl)amino)methyl)benzoic acid]	> 1	2.07
COc1cccc(C(=O)N(Cc2ccc(F)cc2)Cc2ccc(-c3c(C)nc(C)c([C@H](OC(C)(C)C)C(=O)O)c3N3CCC(C)(C)CC3)cc2)c1 [Example 37, (S)-2-(tert-butoxy)-2-(4-(4,4-dimethylpiperidin-1-yl)-5-(4-((N-(4-fluorobenzyl)-3-methoxybenzamido)methyl)phenyl)-2,6-dimethylpyridin-3-yl)acetic acid]	< 0.1	
Cc1nc(C)c([C@H](OC(C)(C)C)C(=O)O)c(N2CCC(C)(C)CC2)c1-c1ccc(CN(Cc2ccc(F)cc2)C(=O)C2CCCC2)cc1 [Example 20, (S)-2-(tert-butoxy)-2-(4-(4,4-dimethylpiperidin-1-yl)-5-(4-((N-(4-fluorobenzyl)cyclopentanecarboxamido)methyl)phenyl)-2,6-dimethylpyridin-3-yl)acetic acid]	< 0.1	
